Data from paper PMC8445441, “Elucidating the mechanism by which synthetic helper peptides sensitize Pseudomonas aeruginosa to multiple antibiotics” (PLoS Pathogens, 2021).
Read-outs that look alike come from different tables or passages of the source.

What was measured:
[1] = tested on: P. aeruginosa AUMC-Pa-1; conditions: strain AUMC-Pa-1; antibiotic + D-11 (MICb/MICbc 128/4)
Outline: (§1)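 Two-fold serial dilutions in MHB received an equal volume of bacteria (suspension about 1 × 10^6 CFU/mL). Plates were held 18 h at 37 °C, then read visually for growth. Triplicate, CLSI-based.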

[2] = tested on: P. aeruginosa AUMC-Pa-2; conditions: strain AUMC-Pa-2; antibiotic + D-11 (MICb/MICbc 64/4)
Outline: as §1

[3] = tested on: P. aeruginosa ATCC27853; experiment: microbe, parasite or virus in culture; parameters: MICa: MIC of the antibiotic / MICac: MIC of the antibiotic in the combination: unit not given beside the values; conditions: for MIC: Pseudomonas aeruginosa, ATCC27853, 18 h, read-out: MICa: MIC of the antibiotic
Outline: as §1

[4] = tested on: P. aeruginosa NR-31041; experiment: microbe, parasite or virus in culture; parameters: MICa: MIC of the antibiotic / MICac: MIC of the antibiotic in the combination: unit not given beside the values; conditions: for MIC: Pseudomonas aeruginosa, NR31041, 18 h, read-out: MICa: MIC of the antibiotic; for FICI / MICac: MIC of the antibiotic in the combination: strain NR-31041; for FICI: antibiotic + D-11 (MICb/MICbc 64/4); for MICac: MIC of the antibiotic in the combination: with D-11 at MICbc 4, unit not given
Outline: as §1

[5] = tested on: P. aeruginosa PAK; experiment: microbe, parasite or virus in culture; parameters: MICa: MIC of the antibiotic / MICac: MIC of the antibiotic in the combination: unit not given beside the values; conditions: for MIC: Pseudomonas aeruginosa, 18 h, read-out: MICa: MIC of the antibiotic; for FICI / MICac: MIC of the antibiotic in the combination: strain PAK; for FICI: antibiotic + D-11 (MICb/MICbc 64/4); for MICac: MIC of the antibiotic in the combination: with D-11 at MICbc 4, unit not given
Outline: as §1

[6] = tested on: P. aeruginosa NR-31040; experiment: microbe, parasite or virus in culture; parameters: MICa: MIC of the antibiotic / MICac: MIC of the antibiotic in the combination: unit not given beside the values; conditions: for MIC: Pseudomonas aeruginosa, NR31040, 18 h, read-out: MICa: MIC of the antibiotic; for FICI / MICac: MIC of the antibiotic in the combination: strain NR-31040; for FICI: antibiotic + D-11 (MICb/MICbc 128/4); for MICac: MIC of the antibiotic in the combination: with D-11 at MICbc 4, unit not given
Outline: as §1

[7] = tested on: P. aeruginosa PA14; experiment: microbe, parasite or virus in culture; parameters: MICa: MIC of the antibiotic / MICac: MIC of the antibiotic in the combination: unit not given beside the values; conditions: for MIC: Pseudomonas aeruginosa, PA14, 18 h, read-out: MICa: MIC of the antibiotic; for FICI / MICac: MIC of the antibiotic in the combination: strain PA14; for FICI: antibiotic + D-11 (MICb/MICbc 128/4); for MICac: MIC of the antibiotic in the combination: with D-11 at MICbc 4, unit not given
Outline: as §1

[8] = tested on: P. aeruginosa HM-214; conditions: strain HM-214; antibiotic + D-11 (MICb/MICbc 128/4)
Outline: as §1

[9] = tested on: clinical P. aeruginosa isolates; experiment: microbe, parasite or virus in culture; conditions: Pseudomonas aeruginosa, 18 h, antibiotic alone
Outline: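 Broth microdilution per CLSI in MHB, two-fold drug dilutions mixed with an equal volume of bacteria at about 1 × 10^6 CFU/mL. After 18 h at 37 °C, MIC taken as the lowest concentration with no visible growth; run in triplicate.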

[10] = tested on: P. aeruginosa AUMC-Pa-6; experiment: microbe, parasite or virus in culture; conditions: for MICac: MIC of the antibiotic in the combination: with D-11 at MICbc 4
Outline: as §1

[11] = tested on: P. aeruginosa AUMC-Pa-5; experiment: microbe, parasite or virus in culture; conditions: for FICI: antibiotic + D-11 (MICb/MICbc 64/4); for MICac: MIC of the antibiotic in the combination: with D-11 at MICbc 4
Outline: as §1

[12] = tested on: P. aeruginosa AUMC-Pa-4; experiment: microbe, parasite or virus in culture; conditions: for MIC: Pseudomonas aeruginosa, AUMCPA4, 18 h, read-out: MICa: MIC of the antibiotic; for FICI / MICac: MIC of the antibiotic in the combination: strain AUMC-Pa-4; for FICI: antibiotic + D-11 (MICb/MICbc 128/4); for MICac: MIC of the antibiotic in the combination: with D-11 at MICbc 4, unit not given
Outline: as §1

[13] = tested on: P. aeruginosa PAO1; experiment: microbe, parasite or virus in culture; conditions: PAO1; for MIC: Pseudomonas aeruginosa, PAO1, 18 h, read-out: MICa: the MIC of antibiotics, S3 Table, antibiotic alone; for FICI / MICac: the MIC for the antibiotic in the combination: S3 Table
Outline: as §1

[14] = tested on: P. aeruginosa AUMC-Pa-3; experiment: microbe, parasite or virus in culture; conditions: for MIC: Pseudomonas aeruginosa, AUMCPA3, 18 h, read-out: MICa: MIC of the antibiotic; for FICI / MICac: MIC of the antibiotic in the combination: strain AUMC-Pa-3; for FICI: antibiotic + D-11 (MICb/MICbc 128/4); for MICac: MIC of the antibiotic in the combination: with D-11 at MICbc 4, unit not given
Outline: as §1

[15] = read-out: Antibiotic sensibility (MIC) of clinical P. aeruginosa isolate AUMC-Pa-1, strain AUMC-Pa-1
[16] = read-out: Antibiotic sensibility (MIC) of clinical P. aeruginosa isolate AUMC-Pa-2, strain AUMC-Pa-2
[17] = read-out: Antibiotic sensibility (MIC) of clinical P. aeruginosa isolate AUMC-Pa-3, strain AUMC-Pa-3
[18] = read-out: Antibiotic sensibility (MIC) of clinical P. aeruginosa isolate AUMC-Pa-4, strain AUMC-Pa-4
[19] = read-out: Antibiotic sensibility (MIC) of clinical P. aeruginosa isolate AUMC-Pa-5, strain AUMC-Pa-5
[20] = read-out: Antibiotic sensibility (MIC) of clinical P. aeruginosa isolate AUMC-Pa-6, strain AUMC-Pa-6
[21] = read-out: Antibiotic sensibility (MIC) of clinical P. aeruginosa isolate HM-214, strain HM-214
[22] = read-out: Antibiotic sensibility (MIC) of clinical P. aeruginosa isolate NR-31040, strain NR-31040
[23] = read-out: Antibiotic sensibility (MIC) of clinical P. aeruginosa isolate NR-31041, strain NR-31041
[24] = strain AUMC-Pa-6, unit not given
[25] = strain AUMC-Pa-5, unit not given

COc1cc(Cc2cnc(N)nc2N)cc(OC)c1OC [Trimethoprim]
FICI [1]: 0.156 | FICI [2]: 0.188 | MIC [3]: > 128 µM | FICI ([3]; strain ATCC27853, antibiotic + D-11 (MICb/MICbc 32/4)): 0.250 | MICac: MIC of the antibiotic in the combination ([3]; strain ATCC27853, with D-11 at MICbc 4, unit not given): 32 | MIC [4]: > 128 µM | FICI [4]: 0.125 | MICac: MIC of the antibiotic in the combination [4]: 16 | MIC [5]: > 128 µM | FICI [5]: 0.188 | MICac: MIC of the antibiotic in the combination [5]: 32 | MIC [6]: > 128 µM | FICI [6]: 0.281 | MICac: MIC of the antibiotic in the combination [6]: 64 | MIC [7]: > 128 µM | FICI [7]: 0.156 | MICac: MIC of the antibiotic in the combination [7]: 32 | FICI [8]: 0.281 | MIC [9, 15]: > 128 µM | MIC [9, 16]: > 128 µM | MIC [9, 17]: > 128 µM | MIC [9, 18]: > 128 µM | MIC [9, 19]: > 128 µM | MIC [9, 20]: > 128 µM | MIC [9, 21]: > 128 µM | MIC [9, 22]: > 128 µM | MIC [9, 23]: > 128 µM | MIC ([10]; Pseudomonas aeruginosa, AUMCPA6, 18 h, read-out: MICa: MIC of the antibiotic): > 128 µM | FICI ([10]; strain AUMC-Pa-6, antibiotic + D-11 (MICb/MICbc 64/4)): 0.313 | MICac: MIC of the antibiotic in the combination [10, 24]: 64 | MIC ([11]; Pseudomonas aeruginosa, AUMCPA5, 18 h, read-out: MICa: MIC of the antibiotic): > 128 µM | FICI ([11]; strain AUMC-Pa-5): 0.563 | MICac: MIC of the antibiotic in the combination [11, 25]: >128/128 | MIC [12]: > 128 µM | FICI [12]: 0.156 | MICac: MIC of the antibiotic in the combination [12]: 16 | MIC [13]: > 128 µM | FICI ([13]; antibiotic + 2 μM D-11): 0.188 | FICI ([13]; antibiotic + 4 μM D-11): 0.188 | MICac: the MIC for the antibiotic in the combination ([13]; with 2 μM D-11): 32 µM | MICac: the MIC for the antibiotic in the combination ([13]; with 4 μM D-11): 16 µM | MIC [14]: > 128 µM | FICI [14]: 0.094 | MICac: MIC of the antibiotic in the combination [14]: 16

CO[C@H]1/C=C/O[C@@]2(C)Oc3c(C)c(O)c4c(O)c(c(/C=N/N5CCN(C)CC5)c(O)c4c3C2=O)NC(=O)/C(C)=C\C=C\[C@H](C)[C@H](O)[C@@H](C)[C@@H](O)[C@@H](C)[C@H](OC(C)=O)[C@@H]1C [Rifampicin]
FICI [1]: 0.032 | FICI [2]: 0.064 | MIC [3]: 16 µM | MIC [4]: 32 µM | FICI [4]: 0.064 | MICac: MIC of the antibiotic in the combination [4]: 0.063 | MIC [5]: 16 µM | FICI [5]: 0.066 | MICac: MIC of the antibiotic in the combination [5]: 0.063 | MIC [6]: 16 µM | FICI [6]: 0.063 | MICac: MIC of the antibiotic in the combination [6]: 0.25 | MIC [7]: > 128 µM | FICI [7]: 0.039 | MICac: MIC of the antibiotic in the combination [7]: 2 | FICI [8]: 0.047 | MIC [9, 15]: 32 µM | MIC [9, 16]: 16 µM | MIC [9, 17]: 16 µM | MIC [9, 18]: 16 µM | MIC [9, 19]: 32 µM | MIC [9, 20]: 32 µM | MIC [9, 21]: 16 µM | MIC [9, 22]: 16 µM | MIC [9, 23]: 32 µM | MICa: MIC of the antibiotic ([10]; strain AUMC-Pa-6, antibiotic alone, unit not given): 32 | MICac: MIC of the antibiotic in the combination [10, 24]: 2 | FICI ([11]; strain AUMC-Pa-5): 0.563 | MICa: MIC of the antibiotic ([11]; strain AUMC-Pa-5, antibiotic alone, unit not given): 32 | MICac: MIC of the antibiotic in the combination [11, 25]: 16 | MIC [12]: 16 µM | FICI [12]: 0.047 | MICac: MIC of the antibiotic in the combination [12]: 0.25 | MIC [13]: 32 µM | FICI ([13]; antibiotic + 2 μM D-11): 0.064 | MICac: the MIC for the antibiotic in the combination ([13]; with 2 μM D-11): 0.0625 µM | MICac: the MIC for the antibiotic in the combination ([13]; with 4 μM D-11): 0.01562 µM | MIC [14]: 16 µM | FICI [14]: 0.032 | MICac: MIC of the antibiotic in the combination [14]: 0.016
